≈ marks a conversion by molar mass, not a printed value. Counter-ions that a name gives are not always drawn.
Experiment: Solubility in fasted-state simulated colonic fluid (FaSSCoF) at pH 6.5
Type: physicochemical
Conditions: for solubility thermodynamic at 24 h: 25 °C, pH 6.5, fassgf or other biorelevant, thermodynamic from solid
Protocol: The solubilities of compounds of the invention in FaSSCoF at pH 6.5 are determined using a modification of a previously-reported procedure (Vertzoni, M., et al. Pharm. Res. 2010, 27, 2187-2196). In place of the bile salt extract employed in the original procedure (which extract is no longer available), the modified procedure uses a mixture of sodium taurochlorate (0.15 g), glycocholic acid (0.15 g), ursodeoxycholic acid (0.05 g), cholic acid (0.05 g), and glycodeoxycholic acid (0.05 g). These five bile acids are ground together with a mortar and pestle to produce a fine white powder that is incorporated into the FaSSCoF, as outlined below.
Tris(hydroxymethyl)aminomethane (Tris; 0.275 g) and maleic acid (0.44 g) are dissolved in water (35 mL) to give a solution whose pH is adjusted to 6.5 by treatment with 0.5M NaOH (ca. 12 mL). The solution is then made up to 50 mL with water. A portion of this Tris/maleate buffer solution (ca. 25 mL) is added to a 0.5 L round-bottomed flask, before being treated with 0.00565 g of the bile acid mixture described above. Solutions of phosphatidylcholine (0.0111 g) in DCM (0.15 mL) and palmitic acid (0.0013 g) in DCM (0.15 mL) are added, then the organic solvent is evaporated off under reduced pressure at 40° C. until a clear solution, with no perceptible DCM odour, is achieved. The volume of the evaporated solution is adjusted to 50 mL by addition of the remainder of Tris/maleate buffer, then BSA (0.115 g) is added, before being dissolved by gentle agitation.
Test compounds are suspended in the pH 6.5 FaSSCoF medium to give a maximum final concentration of 2-10 mg/mL. The suspensions are equilibrated at 25° C. for 24 h, before being filtered through a glass fibre C filter. The filtrates are then diluted as appropriate for injection and quantification by HPLC with reference to a standard. Different volumes of the standard, diluted and undiluted sample solutions are injected and the solubilities are calculated using the peak areas determined by integration of the peak found at the same retention time as the principal peak in the standard injection.

[1] = pH 6.5 FaSSCoF Solubility (mg/mL) Run 1
[2] = pH 6.5 FaSSCoF Solubility (mg/mL) Run 2
[3] = pH 6.5 FaSSCoF Solubility (mg/mL) Run 3
[4] = pH 6.5 FaSSCoF Solubility (mg/mL) Run 4

Structure (SMILES)	solubility thermodynamic at 24 h [1] [mg/mL]	solubility thermodynamic at 24 h [2] [mg/mL]	solubility thermodynamic at 24 h [3] [mg/mL]	solubility thermodynamic at 24 h [4] [mg/mL]	pH 6.5 FaSSCoF Solubility (mg/mL) Run 1 (24 h, pH 6.5) [mg/mL]
COc1cc(Nc2cc(Oc3ccc(NC(=O)Nc4cc(C(C)(C)C)cc(NS(C)(=O)=O)c4OC)c4ccccc34)ccn2)cc(OC)c1C(=O)NC1CCN(C)CC1 [17(bz), 4-((4-((4-(3-(5-(tert-Butyl)-2-methoxy-3-(methylsulfonamido)phenyl)ureido)naphthalen-1-yl)oxy)pyridin-2-yl)amino)-2,6-dimethoxy-N-(1-methylpiperidin-4-yl)benzamide]	0.021 (≈ 25.4 µM)	0.026 (≈ 31.5 µM)	0.014 (≈ 16.9 µM)	0.019 (≈ 23 µM)	
COc1cc(Nc2cc(Oc3ccc(NC(=O)Nc4cc(C(C)(C)C)cc(NS(C)(=O)=O)c4OC)c4ccccc34)ccn2)ccc1C(=O)NCCCCCCC(=O)O [34 (hydrochloride salt), 7-(4-((4-((4-(3-(5-(tert-Butyl)-2-methoxy-3-(methylsulfonamido)phenyl)ureido)naphthalen-1-yl)oxy)pyridin-2-yl)amino)-2-methoxybenzamido)heptanoic acid, hydrochloride salt]	0.001	0.001			
COc1c(NC(=O)Nc2ccc(Oc3ccnc(Nc4ccc(C(=O)O)c(N(C)C)c4)c3)c3ccccc23)cc(C(C)(C)C)cc1NS(C)(=O)=O [17(am), 4-[[4-[[4-[[5-tert-butyl-3-(methanesulfonamido)-2-methoxy-phenyl]carbamoylamino]-1-naphthyl]oxy]-2-pyridyl]amino]-2-(dimethylamino)benzoic acid]	0.01 (≈ 14 µM)	0.012 (≈ 16.8 µM)			
COc1cc(Nc2cc(Oc3ccc(NC(=O)Nc4cc(C(C)(C)C)cc(NS(C)(=O)=O)c4OC)c4ccccc34)ccn2)ccc1C(=O)NCCO [17(bn), 4-((4-((4-(3-(5-(tert-Butyl)-2-methoxy-3-(methylsulfonamido)phenyl)ureido)naphthalen-1-yl)oxy)pyridin-2-yl)amino)-N-(2-hydroxyethyl)-2-methoxybenzamide]	0.008 (≈ 10.8 µM)	0.006 (≈ 8.08 µM)			
COc1cc(Nc2cc(Oc3ccc(NC(=O)Nc4cc(C(C)(C)C)cc(NS(C)(=O)=O)c4OC)c4ccccc34)ccn2)cc(OC)c1C(=O)NCCN1CCN(CCO)CC1 [Example 37, 4-((4-((4-(3-(5-(tert-Butyl)-2-methoxy-3-(methylsulfonamido)phenyl)ureido)naphthalen-1-yl)oxy)pyridin-2-yl)amino)-N-(2-(4-(2-hydroxyethyl)piperazin-1-yl)ethyl)-2,6-dimethoxybenzamide]	0.025 (≈ 28.2 µM)	0.024 (≈ 27.1 µM)	0.007 (≈ 7.91 µM)	0.006 (≈ 6.78 µM)	
COc1cc(Nc2cc(Oc3ccc(NC(=O)Nc4cc(C(C)(C)C)cc(NS(C)(=O)=O)c4OC)c4ccccc34)ccn2)ccc1C(=O)N[C@@H](CO)C(=O)O [17(bj) (sodium salt), (S)-2-(4-((4-((4-(3-(5-(tert-Butyl)-2-methoxy-3-(methylsulfonamido)phenyl)ureido)-naphthalen-1-yl)oxy)pyridin-2-yl)amino)-2-methoxybenzamido)-3-hydroxypropanoic acid]	1.31				
COc1cc(Nc2cc(Oc3ccc(NC(=O)Nc4cc(C(C)(C)C)cc(NS(C)(=O)=O)c4OC)c4ccccc34)ccn2)ccc1C(=O)NCCOCCOCCOP(=O)(O)O [19 (ammonium salt), 2-(2-(2-(4-((4-((4-(3-(5-(tert-Butyl)-2-methoxy-3-(methylsulfonamido)phenyl)ureido)-naphthalen-1-yl)oxy)pyridin-2-yl)amino)-2-methoxybenzamido)ethoxy)ethoxy)ethyl dihydrogen phosphate]	0.946	0.881			
COc1cc(Nc2cc(Oc3ccc(NC(=O)Nc4cc(C(C)(C)C)cc(NS(C)(=O)=O)c4OC)c4ccccc34)ccn2)ccc1C(=O)NCCOP(=O)(O)O [35 (sodium salt), 2-(4-((4-((4-(3-(5-(tert-Butyl)-2-methoxy-3-(methylsulfonamido)phenyl)ureido)naphthalen-1-yl)oxy)pyridin-2-yl)amino)-2-methoxybenzamido)ethyl dihydrogen phosphate]	> 3.5	> 4.2			
COc1cc(Nc2cc(Oc3ccc(NC(=O)Nc4cc(C(C)(C)C)cc(NS(C)(=O)=O)c4OC)c4ccccc34)ccn2)ccc1C(=O)NCCC(=O)N1C[C@H](O)[C@@H](O)[C@H](O)[C@H]1CO [17(cf), 4-((4-((4-(3-(5-(tert-Butyl)-2-methoxy-3-(methylsulfonamido)phenyl)ureido)naphthalen-1-yl)oxy)pyridin-2-yl)amino)-2-methoxy-N-(3-oxo-3-((2R,3R,4R,5S)-3,4,5-trihydroxy-2-(hydroxymethyl)piperidin-1-yl)propyl)benzamide]	0.003 (≈ 3.28 µM)	0.001 (≈ 1.09 µM)			
COc1cc(Nc2cc(Oc3ccc(NC(=O)Nc4cc(C(C)(C)C)cc(NS(C)(=O)=O)c4OC)c4ccccc34)ccn2)cc(OC)c1C(=O)NCCCN1CCOCC1 [Example 23, 4-((4-((4-(3-(5-(tert-Butyl)-2-methoxy-3-(methylsulfonamido)phenyl)ureido)naphthalen-1-yl)oxy)pyridin-2-yl)amino)-2,6-dimethoxy-N-(3-morpholinopropyl)benzamide]	0.008 (≈ 9.35 µM)	0.008 (≈ 9.35 µM)			
COc1cc(Nc2cc(Oc3ccc(NC(=O)Nc4cc(C(C)(C)C)cc(NS(C)(=O)=O)c4OC)c4ccccc34)ccn2)ccc1C(=O)NCC(=O)O [17(ar) (hydrochloride salt), 2-(4-((4-((4-(3-(5-(tert-Butyl)-2-methoxy-3-(methylsulfonamido)phenyl)ureido)naphthalen-1-yl)oxy)pyridin-2-yl)amino)-2-methoxybenzamido)acetic acid]	0.204	0.198			
COc1cc(Nc2cc(Oc3ccc(NC(=O)Nc4cc(C(C)(C)C)cc(NS(C)(=O)=O)c4OC)c4ccccc34)ccn2)ccc1C(=O)NCCC(=O)O [17(ay) (hydrochloride salt), 3-(4-((4-((4-(3-(5-(tert-Butyl)-2-methoxy-3-(methylsulfonamido)phenyl)ureido)-naphthalen-1-yl)oxy)pyridin-2-yl)amino)-2-methoxybenzamido)propanoic acid]	0.029	0.028			
COc1cc(Nc2cc(Oc3ccc(NC(=O)Nc4cc(C(C)(C)C)cc(NS(C)(=O)=O)c4OC)c4ccccc34)ccn2)ccc1C(=O)NCCOCCOCCOP(=O)(O)O [19 (sodium salt), 2-(2-(2-(4-((4-((4-(3-(5-(tert-Butyl)-2-methoxy-3-(methylsulfonamido)phenyl)ureido)-naphthalen-1-yl)oxy)pyridin-2-yl)amino)-2-methoxybenzamido)ethoxy)ethoxy)ethyl dihydrogen phosphate]					>4.7
COc1cc(Nc2cc(Oc3ccc(NC(=O)Nc4cc(C(C)(C)C)cc(NS(C)(=O)=O)c4OC)c4ccccc34)ccn2)cc(OC)c1C(=O)NCCC1CCN(C)CC1 [17(at), 4-((4-((4-(3-(5-(tert-Butyl)-2-methoxy-3-(methylsulfonamido)phenyl)ureido)naphthalen-1-yl)oxy)pyridin-2-yl)amino)-2,6-dimethoxy-N-(2-(1-methylpiperidin-4-yl)ethyl)benzamide]	0.009 (≈ 10.5 µM)	0.009 (≈ 10.5 µM)			
COc1c(NC(=O)Nc2ccc(Oc3ccnc(Nc4ccc(P(C)(=O)O)c(N(C)C)c4)c3)c3ccccc23)cc(C(C)(C)C)cc1NS(C)(=O)=O [68 (sodium salt)]	0.02	0.02			
COc1cc(Nc2cc(Oc3ccc(NC(=O)Nc4cc(C(C)(C)C)cc(NS(C)(=O)=O)c4OC)c4ccccc34)ccn2)ccc1C(=O)NC[C@H](O)[C@H](O)[C@H](O)CO [Example 42, 4-((4-((4-(3-(5-(tert-Butyl)-2-methoxy-3-(methylsulfonamido)phenyl)ureido)naphthalen-1-yl)oxy)pyridin-2-yl)amino)-2-methoxy-N-((2S,3S,4R)-2,3,4,5-tetrahydroxypentyl)benzamide]	0.007 (≈ 8.4 µM)	0.009 (≈ 10.8 µM)			
